The conditions of data set [1]: M. Hannuksela et al., Contact Dermatitis 1, 1975; cited from earlier work.
Data set [2] has as its system gene encoding cathelicidin. Description: Cathelicidin gene activation in reconstructed human epidermis, ointments. As to conditions: 5% vs 10% or 15% by weight of glycerol in the composition. Format: cell-based. An excerpt:
In psoriasis, the level of cathelicidin is increased in lesional skin of psoriasis patients. […] This finding has been utilized to develop an assay in which the uptake and biological activity of calcipotriol in human keratinocytes from the tested compositions has been determined by measuring the level of induction of the gene encoding cathelicidin.
Compositions A, C and D prepared as described in Example 2 above were applied topically in triplicate on reconstructed human epidermis consisting of normal human keratinocytes cultured for 12 days on 0.5 cm^2 polycarbonate filters (available from SkinEthic® Laboratories, Nice, France) in an amount of 10 μl. The tissue was treated for two days followed by separation of the epidermis from the polycarbonate filter and snap-frozen in liquid nitrogen. RNA was extracted from the cells and cDNA synthesized by conventional procedures. qPCR was then performed using the following assays from Applied Biosystems: CAMP Hs0018038_ml and GAPDH Hs99999905_ml. The expression levels of cathelicidin were normalized to GAPDH and a relative quantification was made by comparison with Daivonex® ointment.

In a further data set the test system is IL-1α. Briefly: Release of IL-1α with glycerol in a calcipotriol ointment. As to conditions: 5%, 10% and 15% by weight of glycerol in a calcipotriol ointment.
Data set [3] can be described thus: Particle size by dynamic light scattering. Format: physicochemical. Conditions: Zetasizer Nano ZS90, after high pressure homogenization.
Description: The term “particle size distribution” is intended to mean the span between the smallest and largest calcipotriol monohydrate crystal as determined by dynamic light scattering (also known as photon correlation spectroscopy) using a Zetasizer Nano ZS or ZS90 according to the manufacturer's instructions (available from Malvern Instruments, UK). Dynamic light scattering determines the size of solid particles suspended in a liquid by illuminating the particles with a laser and analysing the intensity fluctuations in the scattered light resulting from the Brownian motions of the particles in the liquid. Intensity fluctuations are correlated to particle size in that larger particles move more slowly than smaller particles, i.e. the intensity fluctuation is slower.
Data set [4] can be described thus: DSC analysis of the amount of amorphous calcipotriol. Conditions: two batches, DSC at 100, 300 and 500° C./min under N2. The data set is classed as physicochemical. On the technique in general: In DSC, transitions show as peaks or steps in heat flow.
Protocol: The amount of amorphous calcipotriol generated in this method was determined on two batches of calcipotriol nanocrystals prepared by the method using DSC analysis at a heating rate of 100° C., 300° C. and 500° C./min. under a N2 atmosphere. The instrument used for the analysis was a Perkin Elmer DSC 8500.

As for `CC(O)CO` (stereo not drawn) [propylene glycol], in data set [1], the “number of irritant reactions” value is given as 12.5%.

Turning to `OCC(O)CO` [glycerol], the “expression of cathelicidin / biological activity of calcipotriol” value in data set [2] is recorded as “potentiating the biological activity of calcipotriol”. The “release of IL-1α” value with IL-1α was “reduce the release of IL-1α in a dose-dependent manner”.

Take `C=C1/C(=C\C=C2/CCC[C@]3(C)[C@@H]([C@H](C)/C=C/[C@@H](O)C4CC4)CC[C@@H]23)C[C@@H](O)C[C@@H]1O` [calcipotriol monohydrate nanocrystals, Calcipotriol monohydrate]: in data set [3], the mean particle size is reported as 350-400 nm and the particle size distribution is on record as 200-600 nm. Moreover, the “amount of amorphous calcipotriol” value in data set [4] is “only insignificant amounts of amorphous calcipotriol”.
